Measured values: PubChem BioAssay (NCI)
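Compound exposure: 48 hours, 5 concentrations, 96-well plates. GI50 marks 50% less growth. The concentration for full growth arrest is given as TGI.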

What was measured:
Test in all cases: DTP human tumour cell line panel, 48 h
NCI-H522 lung = tested on: NCI-H522 lung
BT-549 breast = tested on: BT-549 breast
HOP-92 NSCLC = tested on: HOP-92 NSCLC
786-0 renal = tested on: 786-0 renal
K-562 leukemia = tested on: K-562 leukemia
SF-295 CNS = tested on: SF-295 CNS
RXF 393 renal = tested on: RXF 393 renal
SK-OV-3 ovarian = tested on: SK-OV-3 ovarian
SF-268 CNS = tested on: SF-268 CNS
UACC-62 melanoma = tested on: UACC-62 melanoma
HOP-62 NSCLC = tested on: HOP-62 NSCLC
SNB-19 CNS = tested on: SNB-19 CNS
MALME-3M melanoma = tested on: MALME-3M melanoma
HS 578T breast = tested on: HS 578T breast
SNB-75 CNS = tested on: SNB-75 CNS
MDA-MB-231 breast = tested on: MDA-MB-231 breast
IGROV1 ovarian = tested on: IGROV1 ovarian
NCI/ADR-RES ovarian = tested on: NCI/ADR-RES ovarian
SF-539 CNS = tested on: SF-539 CNS
CAKI-1 renal = tested on: CAKI-1 renal
T-47D breast = tested on: T-47D breast
SK-MEL-28 melanoma = tested on: SK-MEL-28 melanoma
OVCAR-4 ovarian = tested on: OVCAR-4 ovarian
SR leukemia = tested on: SR leukemia
MOLT-4 leukemia = tested on: MOLT-4 leukemia
SK-MEL-2 melanoma = tested on: SK-MEL-2 melanoma
UACC-257 melanoma = tested on: UACC-257 melanoma
TK-10 renal = tested on: TK-10 renal
NCI-H460 lung = tested on: NCI-H460 lung
COLO 205 colon = tested on: COLO 205 colon
KM12 colon = tested on: KM12 colon
HCC-2998 colon = tested on: HCC-2998 colon
NCI-H226 lung = tested on: NCI-H226 lung
PC-3 prostate = tested on: PC-3 prostate
HT29 colon = tested on: HT29 colon
UO-31 renal = tested on: UO-31 renal
ACHN renal = tested on: ACHN renal
RPMI-8226 leukemia = tested on: RPMI-8226 leukemia
NCI-H23 lung = tested on: NCI-H23 lung
OVCAR-5 ovarian = tested on: OVCAR-5 ovarian
U251 CNS = tested on: U251 CNS
EKVX NSCLC = tested on: EKVX NSCLC
HCT-15 colon = tested on: HCT-15 colon
MCF7 breast = tested on: MCF7 breast
OVCAR-3 ovarian = tested on: OVCAR-3 ovarian
HL-60(TB) leukemia = tested on: HL-60(TB) leukemia
A549 NSCLC = tested on: A549 NSCLC
A498 renal = tested on: A498 renal
SW-620 colon = tested on: SW-620 colon
SK-MEL-5 melanoma = tested on: SK-MEL-5 melanoma
SN12C renal = tested on: SN12C renal
MDA-MB-435 = tested on: MDA-MB-435

Question: What does the source list for `N#C/C(=C\c1ccc(-c2ccc(Cl)cc2)o1)C(=O)Nc1ncc(Cc2ccc(Br)cc2)s1`?
Answer: GI50 (NCI-H522 lung): 2640 nM; TGI (NCI-H522 lung): > 100000 nM; GI50 (BT-549 breast): 1840 nM; TGI (BT-549 breast): 8690 nM; GI50 (HOP-92 NSCLC): 1130 nM; TGI (HOP-92 NSCLC): 8280 nM; GI50 (786-0 renal): 2450 nM; TGI (786-0 renal): 6800 nM; GI50 (K-562 leukemia): 4470 nM; TGI (K-562 leukemia): > 100000 nM; GI50 (SF-295 CNS): 5220 nM; TGI (SF-295 CNS): 51500 nM; GI50 (RXF 393 renal): 8850 nM; TGI (RXF 393 renal): 33700 nM; GI50 (SK-OV-3 ovarian): 3920 nM; TGI (SK-OV-3 ovarian): 25900 nM; GI50 (SF-268 CNS): 3730 nM; TGI (SF-268 CNS): > 100000 nM; GI50 (UACC-62 melanoma): 2950 nM; TGI (UACC-62 melanoma): > 100000 nM; GI50 (HOP-62 NSCLC): 2470 nM; TGI (HOP-62 NSCLC): > 100000 nM; GI50 (SNB-19 CNS): 3580 nM; TGI (SNB-19 CNS): > 100000 nM; GI50 (MALME-3M melanoma): 1550 nM; TGI (MALME-3M melanoma): 4260 nM; GI50 (HS 578T breast): 1230 nM; TGI (HS 578T breast): 6270 nM; GI50 (SNB-75 CNS): 794 nM; TGI (SNB-75 CNS): 3830 nM; GI50 (MDA-MB-231 breast): 3380 nM; TGI (MDA-MB-231 breast): > 100000 nM; GI50 (IGROV1 ovarian): 2890 nM; TGI (IGROV1 ovarian): > 100000 nM

Question: With `CC(=O)OC[C@]12CC[C@@H](C(=O)/C=C/c3cccnc3)[C@@H]1[C@H]1CC[C@@H]3[C@@]4(C)CC[C@H](OC(C)=O)C(C)(C)[C@@H]4CC[C@@]3(C)[C@]1(C)CC2` as the molecule, how does the GI50 (NCI/ADR-RES ovarian) read?
Answer: 1990 nM

Question: And the TGI (NCI/ADR-RES ovarian)?
Answer: 4910 nM

Question: And the GI50 (SF-539 CNS)?
Answer: 1590 nM

Question: And the TGI (SF-539 CNS)?
Answer: 3070 nM

Question: What about the GI50 (CAKI-1 renal) of the same molecule?
Answer: 1260 nM

Question: And the TGI (CAKI-1 renal)?
Answer: 2700 nM

Question: What about the GI50 (BT-549 breast) of the same molecule?
Answer: 1460 nM

Question: And the TGI (BT-549 breast)?
Answer: 2870 nM

Question: And the GI50 (T-47D breast)?
Answer: 1060 nM

Question: What about the TGI (T-47D breast) of the same molecule?
Answer: 3530 nM

Question: What about the GI50 (HOP-92 NSCLC) of the same molecule?
Answer: 1080 nM

Question: What about the TGI (HOP-92 NSCLC) of the same molecule?
Answer: 2470 nM

Question: And the GI50 (SK-MEL-28 melanoma)?
Answer: 1440 nM

Question: What about the TGI (SK-MEL-28 melanoma) of the same molecule?
Answer: 2890 nM

Question: And the GI50 (OVCAR-4 ovarian)?
Answer: 3010 nM

Question: And the TGI (OVCAR-4 ovarian)?
Answer: > 100000 nM

Question: What about the GI50 (SR leukemia) of the same molecule?
Answer: 512 nM

Question: And the TGI (SR leukemia)?
Answer: > 100000 nM

Question: And the GI50 (MOLT-4 leukemia)?
Answer: 587 nM

Question: What about the TGI (MOLT-4 leukemia) of the same molecule?
Answer: 4000 nM

Question: What about the GI50 (SK-MEL-2 melanoma) of the same molecule?
Answer: 1800 nM

Question: What about the TGI (SK-MEL-2 melanoma) of the same molecule?
Answer: 3780 nM

Question: What about the GI50 (UACC-257 melanoma) of the same molecule?
Answer: 1900 nM

Question: And the TGI (UACC-257 melanoma)?
Answer: 4680 nM

Question: And the GI50 (TK-10 renal)?
Answer: 1850 nM

Question: What about the TGI (TK-10 renal) of the same molecule?
Answer: 3630 nM

Question: What about the GI50 (NCI-H460 lung) of the same molecule?
Answer: 1310 nM

Question: What about the TGI (NCI-H460 lung) of the same molecule?
Answer: 3010 nM

Question: And the GI50 (786-0 renal)?
Answer: 2420 nM

Question: What about the TGI (786-0 renal) of the same molecule?
Answer: 6710 nM

Question: What about the GI50 (K-562 leukemia) of the same molecule?
Answer: 903 nM

Question: What about the TGI (K-562 leukemia) of the same molecule?
Answer: > 100000 nM

Question: And the GI50 (COLO 205 colon)?
Answer: 1480 nM

Question: What about the TGI (COLO 205 colon) of the same molecule?
Answer: 3370 nM

Question: What about the GI50 (KM12 colon) of the same molecule?
Answer: 1690 nM

Question: What about the TGI (KM12 colon) of the same molecule?
Answer: 4130 nM

Question: What about the GI50 (SF-295 CNS) of the same molecule?
Answer: 1470 nM

Question: What about the TGI (SF-295 CNS) of the same molecule?
Answer: 3190 nM

Question: What about the GI50 (HCC-2998 colon) of the same molecule?
Answer: 1650 nM

Question: What about the TGI (HCC-2998 colon) of the same molecule?
Answer: 3230 nM

Question: And the GI50 (RXF 393 renal)?
Answer: 1620 nM

Question: What about the TGI (RXF 393 renal) of the same molecule?
Answer: 3050 nM

Question: And the GI50 (SK-OV-3 ovarian)?
Answer: 3320 nM

Question: What about the TGI (SK-OV-3 ovarian) of the same molecule?
Answer: 19000 nM

Question: What about the GI50 (NCI-H226 lung) of the same molecule?
Answer: 1720 nM

Question: And the TGI (NCI-H226 lung)?
Answer: 3850 nM

Question: What about the GI50 (PC-3 prostate) of the same molecule?
Answer: 820 nM

Question: And the TGI (PC-3 prostate)?
Answer: 4140 nM

Question: What about the GI50 (UACC-62 melanoma) of the same molecule?
Answer: 1670 nM

Question: What about the TGI (UACC-62 melanoma) of the same molecule?
Answer: 4080 nM

Question: And the GI50 (HT29 colon)?
Answer: 1870 nM

Question: What about the TGI (HT29 colon) of the same molecule?
Answer: 4740 nM

Question: And the GI50 (HOP-62 NSCLC)?
Answer: 2210 nM

Question: And the TGI (HOP-62 NSCLC)?
Answer: 6370 nM

Question: What about the GI50 (UO-31 renal) of the same molecule?
Answer: 1370 nM

Question: What about the TGI (UO-31 renal) of the same molecule?
Answer: 2670 nM

Question: What about the GI50 (ACHN renal) of the same molecule?
Answer: 1610 nM

Question: What about the TGI (ACHN renal) of the same molecule?
Answer: 3020 nM

Question: What about the GI50 (RPMI-8226 leukemia) of the same molecule?
Answer: 839 nM

Question: What about the TGI (RPMI-8226 leukemia) of the same molecule?
Answer: 3640 nM

Question: And the GI50 (SNB-19 CNS)?
Answer: 1890 nM

Question: And the TGI (SNB-19 CNS)?
Answer: 4640 nM

Question: What about the GI50 (NCI-H23 lung) of the same molecule?
Answer: 1860 nM

Question: And the TGI (NCI-H23 lung)?
Answer: 4120 nM

Question: And the GI50 (OVCAR-5 ovarian)?
Answer: 1820 nM

Question: What about the TGI (OVCAR-5 ovarian) of the same molecule?
Answer: 4070 nM

Question: And the GI50 (U251 CNS)?
Answer: 1600 nM

Question: And the TGI (U251 CNS)?
Answer: 3350 nM

Question: What about the GI50 (MALME-3M melanoma) of the same molecule?
Answer: 1380 nM

Question: What about the TGI (MALME-3M melanoma) of the same molecule?
Answer: 2880 nM

Question: What about the GI50 (EKVX NSCLC) of the same molecule?
Answer: 2180 nM

Question: And the TGI (EKVX NSCLC)?
Answer: 6990 nM

Question: And the GI50 (HCT-15 colon)?
Answer: 1500 nM

Question: And the TGI (HCT-15 colon)?
Answer: 3340 nM

Question: What about the GI50 (MCF7 breast) of the same molecule?
Answer: 1100 nM

Question: What about the TGI (MCF7 breast) of the same molecule?
Answer: 2420 nM

Question: And the GI50 (OVCAR-3 ovarian)?
Answer: 1710 nM

Question: What about the TGI (OVCAR-3 ovarian) of the same molecule?
Answer: 3290 nM

Question: What about the GI50 (HS 578T breast) of the same molecule?
Answer: 2240 nM

Question: And the TGI (HS 578T breast)?
Answer: 6610 nM

Question: And the GI50 (HL-60(TB) leukemia)?
Answer: 450 nM

Question: What about the TGI (HL-60(TB) leukemia) of the same molecule?
Answer: 3290 nM

Question: And the GI50 (A549 NSCLC)?
Answer: 1820 nM

Question: What about the TGI (A549 NSCLC) of the same molecule?
Answer: 4690 nM

Question: What about the GI50 (A498 renal) of the same molecule?
Answer: 1330 nM

Question: What about the TGI (A498 renal) of the same molecule?
Answer: 2840 nM

Question: What about the GI50 (SNB-75 CNS) of the same molecule?
Answer: 1500 nM

Question: What about the TGI (SNB-75 CNS) of the same molecule?
Answer: 5000 nM

Question: And the GI50 (MDA-MB-231 breast)?
Answer: 1500 nM

Question: What about the TGI (MDA-MB-231 breast) of the same molecule?
Answer: 3610 nM

Question: And the GI50 (SW-620 colon)?
Answer: 1470 nM

Question: And the TGI (SW-620 colon)?
Answer: 3420 nM

Question: What about the GI50 (SK-MEL-5 melanoma) of the same molecule?
Answer: 1550 nM

Question: And the TGI (SK-MEL-5 melanoma)?
Answer: 2970 nM

Question: What about the GI50 (SN12C renal) of the same molecule?
Answer: 1590 nM

Question: And the TGI (SN12C renal)?
Answer: 4350 nM

Question: What about the GI50 (IGROV1 ovarian) of the same molecule?
Answer: 1870 nM

Question: What about the TGI (IGROV1 ovarian) of the same molecule?
Answer: 4400 nM

Question: And the GI50 (MDA-MB-435)?
Answer: 1410 nM

Question: And the TGI (MDA-MB-435)?
Answer: 3180 nM
